From EP0319644A2, “Alkylated amide derivatives, their use and pharmaceutical compositions containing them” (THE GREEN CROSS CORPORATION, priority 1987, dated 1989) come the findings set out here.

Test [1] relates to water immersed restraint stress ulcerization. In words: Rat water immersed restraint stress ulcerization (Test Example 1). It counts as in vivo, male Wistar rats. The conditions noted are these: dose 5 mg/kg orally 90 minutes before stress loading; for Ulcer Index (Mean ± S.B.): 7 hours immersion at 22 ± 1 °C, suspended in saline containing 10% HCO-60, sum of ulcer lengths per rat; for Inhibition rate (%): versus untreated control. How it is done: Each test compound was suspended in physiological saline containing 10% polyoxyethylene cured caster oil (HCO-60: manufactured by Nikko Chemicals), and was then tested.
(§1) The test was conducted according to the method of rat water immersed restraint stress ulcerization proposed by Okabe et al. (Jpn. J. Pharmacol., 18, 9, (1968)). That is, male Wistar rats weighing 230 to 250 g were fasted for 24 hours, put in a stress cage in the erect position, and were immersed in a thermostatic water tank at 22 ± 1 °C up to the sternal process. The rats were sacrificed 7 hours later, and the stomach was removed. The pylorus was ligated and 10 ml of physiological saline was infused into the stomach. The cardia also was ligated and dipped in 1% formalin for 5 to 10 minutes. Afterwards, the stomach was opened along the greater curvature, and any blood deposited on the mucosa in the glandular portion was wiped off gently. The length of the remaining ulcers (erosions) was measured. The sum (mm) of the length of the ulcers in each rat was defined as the ulcer index. The test material was administered orally 90 minutes before stress loading (dose: 5 mg/kg).

For test [2] the test system is unchanged. As to the kind of experiment: Rat water immersed restraint stress ulcerization, gum arabic preparation (Test Example 2). It counts as in vivo, Male Wister rats. The following applies: for Ulcer Index (Mean ± S.B.) / Inhibition rate (%): dose 25 mg/kg orally, preparation with 5% gum arabic (2 ml/kg); for Ulcer Index (Mean ± S.B.): rats fasted overnight; for Inhibition rate (%): versus control; for antiulcer activity: summary in words of Table 2, no significant difference between the two compounds. How it is done:
as §1
Male Wister rats weighing 200 to 220 g were fasted overnight and the preparation containing Compound 2 (S-(2-cyclohexylethyl)-N-(2-decenoyl) cysteamine) and 5% gum arabic or the preparation containing the S-oxide derivarive of Compound 2 (S-(2-cyclohexylethyl)-N-(2-decenoyl) cysteamine S-oxide) and 5% gum arabic was orally administered to each rat (2 ml/kg).
Antiulcer activity of each test compound was evaluated in the same manner as in Test Example 1.

With `CCCCCCCC=CC(=O)NCCSCCC1CCCCC1` [Compound 2, S-(cyclohexylethyl)-N-(2-decenoyl) cysteamine], in test [1], the “Ulcer Index (Mean ± S.B.)” value was found to be 6.7 ± 1.7 mm and the “Inhibition rate (%)” value came to 69.5%. Further, in test [2], the “Ulcer Index (Mean ± S.B.)” value came out at 10.0 ± 1.5 mm, the “Inhibition rate (%)” value came to 58.0% and the antiulcer activity entry is “excellent antiulcer activity”.
As to `CCCCCCCC=CC(=O)NCC[S+]([O-])CCC1CCCCC1` (stereo not drawn) [S-oxide of Compound 2, S-(2-cyclohexylethyl)-N-(2-decenoyl) cysteamine S-oxide], in test [2], the “Ulcer Index (Mean ± S.B.)” value stood at 12.8 ± 1.9 mm, the “Inhibition rate (%)” value is 46.2% and the antiulcer activity entry is recorded as “excellent antiulcer activity”.
For `CCCCCCC/C=C/C(=O)NCCSCC1CCCCN1C` (stereo not drawn) [Compound 8, N-(2-decenoyl)-S-[(1-methylpiperidyl)methyl] cysteamine], in test [1], the “Ulcer Index (Mean ± S.B.)” value was found to be 8.0 ± 1.7 mm and the “Inhibition rate (%)” value turned out to be 63.6%.
